# Test results from patent publication US20230085307A1, “PYRIDAZINONE COMPOUND AND HERBICIDE” (NISSAN CHEMICAL CORPORATION, priority 2019, published 2023).
# Key:
# late watergrass = assay: Test Example 1: herbicidal activity, application before weed generation under submerged conditions (Table 16, symbol A); assay type: in vivo, late watergrass (Echinochloa oryzicola); settings: 320 g/ha applied herbicide
# In short: (§1)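 Emulsion formulation, water-diluted to set dose, was put onto the flooded surface (4 cm depth, alluvial soil) the same day weeds were sown and 2.5-leaf rice transplanted. After 3 weeks at 25-30 °C under glass, each species was rated 0 (≤5% kill) to 5 (≥90% kill).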
# Japanese bulrush = assay: Test Example 1: herbicidal activity, application before weed generation under submerged conditions (Table 16, symbol B); assay type: in vivo, Japanese bulrush (Schoenoplectus juncoides); settings: 320 g/ha applied herbicide
# In short: as §1
# oval-leafed pondweed = assay: Test Example 1: herbicidal activity, application before weed generation under submerged conditions (Table 16, symbol C); assay type: in vivo, oval-leafed pondweed (Monochoria vaginalis); settings: 320 g/ha applied herbicide
# In short: as §1
# barnyard grass [1] = assay: Test Example 3: herbicidal effect by foliage application, Wagner pot (Table 18, symbol H); assay type: in vivo, barnyard grass (Echinochloa crus-galli); settings: amount of applied herbicide 320 g/ha
# In short: (§2)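 Plants were sown in alluvial soil held under 0.1–0.5 cm standing water and grown 14 days in a greenhouse at 25–30 °C. An emulsifiable formulation, water-diluted to the set dose, was then sprayed onto the foliage, and effects were scored three weeks later using previously defined criteria.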
# Chinese sprangletop = assay: Test Example 3: herbicidal effect by foliage application, Wagner pot (Table 18, symbol D); assay type: in vivo, chinese sprangletop (Leptochloa chinensis); settings: amount of applied herbicide 320 g/ha
# In short: as §2
# rice flat sedge = assay: Test Example 3: herbicidal effect by foliage application, Wagner pot (Table 18, symbol E); assay type: in vivo, rice flat sedge (Cyperus iria); settings: amount of applied herbicide 320 g/ha
# In short: as §2
# southern crabgrass [2] = assay: Test Example 4: herbicidal effect by soil treatment (Table 19, symbol F); assay type: in vivo, southern crabgrass (Digitaria ciliaris); settings: amount of applied herbicide 320 g/ha
# In short: (§3)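 Applied as a water-diluted emulsion, the compound was sprayed onto soil covering newly sown seeds. Evaluation came three weeks after application, in a greenhouse held at 25° C. to 30° C.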
# green foxtail [3] = assay: Test Example 4: herbicidal effect by soil treatment (Table 19, symbol G); assay type: in vivo, green foxtail (Setaria viridis); settings: amount of applied herbicide 320 g/ha
# In short: as §3
# barnyard grass [4] = assay: Test Example 4: herbicidal effect by soil treatment (Table 19, symbol H); assay type: in vivo, barnyard grass (Echinochloa crus-galli); settings: amount of applied herbicide 320 g/ha
# In short: as §3
# wild oat [5] = assay: Test Example 4: herbicidal effect by soil treatment (Table 19, symbol I); assay type: in vivo, wild oat (Avena fatua); settings: amount of applied herbicide 320 g/ha
# In short: as §3
# blackgrass [6] = assay: Test Example 4: herbicidal effect by soil treatment (Table 19, symbol J); assay type: in vivo, blackgrass (Alopecurus myosuroides); settings: amount of applied herbicide 320 g/ha
# In short: as §3
# Italian ryegrass [7] = assay: Test Example 4: herbicidal effect by soil treatment (Table 19, symbol K); assay type: in vivo, Italian ryegrass (Lolium multiflorum); settings: amount of applied herbicide 320 g/ha
# In short: as §3
# windgrass [8] = assay: Test Example 4: herbicidal effect by soil treatment (Table 19, symbol L); assay type: in vivo, windgrass (Apera spica-venti); settings: amount of applied herbicide 320 g/ha
# In short: as §3
# velvetleaf [9] = assay: Test Example 4: herbicidal effect by soil treatment (Table 19, symbol M); assay type: in vivo, velvetleaf (Abutilon theophrasti); settings: amount of applied herbicide 320 g/ha
# In short: as §3
# redroot pigweed [10] = assay: Test Example 4: herbicidal effect by soil treatment (Table 19, symbol N); assay type: in vivo, redroot pigweed (Amaranthus retroflexus); settings: amount of applied herbicide 320 g/ha
# In short: as §3
# lambsquarters [11] = assay: Test Example 4: herbicidal effect by soil treatment (Table 19, symbol O); assay type: in vivo, lambsquarters (Chenopodium album); settings: amount of applied herbicide 320 g/ha
# In short: as §3
# chickweed [12] = assay: Test Example 4: herbicidal effect by soil treatment (Table 19, symbol P); assay type: in vivo, common chickweed (Stellaria media); settings: amount of applied herbicide 320 g/ha
# In short: as §3
# false cleavers [13] = assay: Test Example 4: herbicidal effect by soil treatment (Table 19, symbol Q); assay type: in vivo, false cleavers (Galium spurium); settings: amount of applied herbicide 320 g/ha
# In short: as §3
# persian speedwell [14] = assay: Test Example 4: herbicidal effect by soil treatment (Table 19, symbol R); assay type: in vivo, Persian speedwell (Veronica persica); settings: amount of applied herbicide 320 g/ha
# In short: as §3
# southern crabgrass [15] = assay: Test Example 5: herbicidal effect by foliage application, plastic box (Table 20, symbol F); assay type: in vivo, southern crabgrass (Digitaria ciliaris); settings: foliage application, 320 g/ha, evaluated three weeks after application
# In short: (§4)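 Sow seeds spot-wise in sterilized diluvial soil; cover with ~1.5 cm soil. Grow 14 days in greenhouse, 25° C. to 30° C. Spray foliage with emulsion diluted to predetermined amount. Rate effect after 3 weeks.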
# green foxtail [16] = assay: Test Example 5: herbicidal effect by foliage application, plastic box (Table 20, symbol G); assay type: in vivo, green foxtail (Setaria viridis); settings: foliage application, 320 g/ha, evaluated three weeks after application
# In short: as §4
# barnyard grass [17] = assay: Test Example 5: herbicidal effect by foliage application, plastic box (Table 20, symbol H); assay type: in vivo, barnyard grass (Echinochloa crus-galli); settings: foliage application, 320 g/ha, evaluated three weeks after application
# In short: as §4
# wild oat [18] = assay: Test Example 5: herbicidal effect by foliage application, plastic box (Table 20, symbol I); assay type: in vivo, wild oat (Avena fatua); settings: foliage application, 320 g/ha, evaluated three weeks after application
# In short: as §4
# blackgrass [19] = assay: Test Example 5: herbicidal effect by foliage application, plastic box (Table 20, symbol J); assay type: in vivo, blackgrass (Alopecurus myosuroides); settings: foliage application, 320 g/ha, evaluated three weeks after application
# In short: as §4
# Italian ryegrass [20] = assay: Test Example 5: herbicidal effect by foliage application, plastic box (Table 20, symbol K); assay type: in vivo, Italian ryegrass (Lolium multiflorum); settings: foliage application, 320 g/ha, evaluated three weeks after application
# In short: as §4
# windgrass [21] = assay: Test Example 5: herbicidal effect by foliage application, plastic box (Table 20, symbol L); assay type: in vivo, windgrass (Apera spica-venti); settings: foliage application, 320 g/ha, evaluated three weeks after application
# In short: as §4
# velvetleaf [22] = assay: Test Example 5: herbicidal effect by foliage application, plastic box (Table 20, symbol M); assay type: in vivo, velvetleaf (Abutilon theophrasti); settings: foliage application, 320 g/ha, evaluated three weeks after application
# In short: as §4
# redroot pigweed [23] = assay: Test Example 5: herbicidal effect by foliage application, plastic box (Table 20, symbol N); assay type: in vivo, redroot pigweed (Amaranthus retroflexus); settings: foliage application, 320 g/ha, evaluated three weeks after application
# In short: as §4
# lambsquarters [24] = assay: Test Example 5: herbicidal effect by foliage application, plastic box (Table 20, symbol O); assay type: in vivo, lambsquarters (Chenopodium album); settings: foliage application, 320 g/ha, evaluated three weeks after application
# In short: as §4
# chickweed [25] = assay: Test Example 5: herbicidal effect by foliage application, plastic box (Table 20, symbol P); assay type: in vivo, common chickweed (Stellaria media); settings: foliage application, 320 g/ha, evaluated three weeks after application
# In short: as §4
# false cleavers [26] = assay: Test Example 5: herbicidal effect by foliage application, plastic box (Table 20, symbol Q); assay type: in vivo, false cleavers (Galium spurium); settings: foliage application, 320 g/ha, evaluated three weeks after application
# In short: as §4
# persian speedwell [27] = assay: Test Example 5: herbicidal effect by foliage application, plastic box (Table 20, symbol R); assay type: in vivo, Persian speedwell (Veronica persica); settings: foliage application, 320 g/ha, evaluated three weeks after application
# In short: as §4
structure (smiles),measurement,setting,value
COc1ccc2sc(-c3ccccc3OC)c(-c3c(O)c(C)nn(C)c3=O)c2c1 [2-165],Herbicidal effect on A: late watergrass (grade 0-5),late watergrass,3 (Herbicidal rate of 40% or more and less than 70%)
same,Herbicidal effect on B: Japanese bulrush (grade 0-5),Japanese bulrush,0 (Herbicidal rate of 5% or less (almost no effect))
same,Herbicidal effect on C: oval-leafed pondweed (grade 0-5),oval-leafed pondweed,1 (Herbicidal rate of 5% or more and less than 20%)
same,herbicidal effect on H: barnyard grass,barnyard grass [1],5 (Herbicidal rate of 90% or more (almost completely withered))
same,herbicidal effect on D: Chinese sprangletop,Chinese sprangletop,3 (Herbicidal rate of 40% or more and less than 70%)
same,herbicidal effect on E: rice flat sedge,rice flat sedge,5 (Herbicidal rate of 90% or more (almost completely withered))
same,"F: southern crabgrass, herbicidal effect rating",southern crabgrass [2],3 (Herbicidal rate of 40% or more and less than 70%)
same,"G: green foxtail, herbicidal effect rating",green foxtail [3],4 (Herbicidal rate of 70% or more and less than 90%)
same,"H: barnyard grass, herbicidal effect rating",barnyard grass [4],3 (Herbicidal rate of 40% or more and less than 70%)
same,"I: wild oat, herbicidal effect rating",wild oat [5],2 (Herbicidal rate of 20% or more and less than 40%)
same,"J: blackgrass, herbicidal effect rating",blackgrass [6],4 (Herbicidal rate of 70% or more and less than 90%)
same,"K: Italian ryegrass, herbicidal effect rating",Italian ryegrass [7],0 (Herbicidal rate of 5% or less (almost no effect))
same,"L: windgrass, herbicidal effect rating",windgrass [8],4 (Herbicidal rate of 70% or more and less than 90%)
same,"M: velvetleaf, herbicidal effect rating",velvetleaf [9],2 (Herbicidal rate of 20% or more and less than 40%)
same,"N: redroot pigweed, herbicidal effect rating",redroot pigweed [10],4 (Herbicidal rate of 70% or more and less than 90%)
same,"O: lambsquarters, herbicidal effect rating",lambsquarters [11],4 (Herbicidal rate of 70% or more and less than 90%)
same,"P: chickweed, herbicidal effect rating",chickweed [12],4 (Herbicidal rate of 70% or more and less than 90%)
same,"Q: false cleavers, herbicidal effect rating",false cleavers [13],3 (Herbicidal rate of 40% or more and less than 70%)
same,"R: persian speedwell, herbicidal effect rating",persian speedwell [14],5 (Herbicidal rate of 90% or more (almost completely withered))
same,herbicidal effect on F: southern crabgrass (criteria 0-5),southern crabgrass [15],5 (Herbicidal rate of 90% or more (almost completely withered))
same,herbicidal effect on G: green foxtail (criteria 0-5),green foxtail [16],5 (Herbicidal rate of 90% or more (almost completely withered))
same,herbicidal effect on H: barnyard grass (criteria 0-5),barnyard grass [17],5 (Herbicidal rate of 90% or more (almost completely withered))
same,herbicidal effect on I: wild oat (criteria 0-5),wild oat [18],5 (Herbicidal rate of 90% or more (almost completely withered))
same,herbicidal effect on J: blackgrass (criteria 0-5),blackgrass [19],5 (Herbicidal rate of 90% or more (almost completely withered))
same,herbicidal effect on K: Italian ryegrass (criteria 0-5),Italian ryegrass [20],4 (Herbicidal rate of 70% or more and less than 90%)
same,herbicidal effect on L: windgrass (criteria 0-5),windgrass [21],5 (Herbicidal rate of 90% or more (almost completely withered))
same,herbicidal effect on M: velvetleaf (criteria 0-5),velvetleaf [22],5 (Herbicidal rate of 90% or more (almost completely withered))
same,herbicidal effect on N: redroot pigweed (criteria 0-5),redroot pigweed [23],5 (Herbicidal rate of 90% or more (almost completely withered))
same,herbicidal effect on O: lambsquarters (criteria 0-5),lambsquarters [24],5 (Herbicidal rate of 90% or more (almost completely withered))
same,herbicidal effect on P: chickweed (criteria 0-5),chickweed [25],5 (Herbicidal rate of 90% or more (almost completely withered))
same,herbicidal effect on Q: false cleavers (criteria 0-5),false cleavers [26],5 (Herbicidal rate of 90% or more (almost completely withered))
same,herbicidal effect on R: persian speedwell (criteria 0-5),persian speedwell [27],4 (Herbicidal rate of 70% or more and less than 90%)
